Results reported in US20260138969A1 (Korea Research Institute of Chemical Technology, priority 2023, published 2026).

Key:
[1] = test system: α-Syn transgenic Parkinson's disease mouse model; assay: α-Syn transgenic Parkinson's disease mouse model: step error (beam test); assay type: in vivo; details: at 7 and 9 months; Memantine 10 mg/kg, Example 3 2/10/50 mg/kg, Example 2 2 mg/kg PO QD; vs G2
Procedure: The test drug was administered once daily (QD) via oral administration (PO) with a solution of 5 ml/kg for 5 months from 4 months to 9 months of age. Motor behavior tests (beam test) and neurological scores (modified Irwin test) were performed at 4 months (before administration), 7 months, and 9 months. After the final behavioral test, tissue samples were taken. Weight was measured on the same day once a week from 4 months of age until the end of the study.
The procedure described by Fleming et al. (J Neurosci, 24:9434-40, 2004) was adopted as the beam test (Challenging Beam Traversal). Exercise capacity was measured with a new beam test that was a modification of the existing beam walking test. The beam is made of Plexiglas and consists of four sections (each 25 cm and a total length of 1 m), each with a different width. The beam is designed to start at 3.5 cm wide and gradually narrow in increments of 0.5 cm×1 cm. A shelf 1 cm wide was placed 1.0 cm below the top surface of the beam.
The mouse was trained to cross the length of the beam, starting from the widest section and ending with the narrowest and most difficult section. The narrow end of the beam is designed to connect directly to the mouse's house cage. The mice were trained for two days before testing, and all training was carried out without a mesh grid. On the first day, two auxiliary exercises were performed, in which the mouse was placed on a beam and the home cage was placed close to the mouse. This induces it to move forward along the beam. […]
The error was counted if the limb (front or hind leg) passed through the grid during forward movement and was visible between the grid and the beam surface. […] Error was measured by scoring each limb slippage individually. For example, a mouse with three limbs slipping off the grid in one step was rated with an error score of 3 points, while a mouse with only one limb slipped off the grid in one step was evaluated with an error score of 1 in that step. […] The number of step errors and the time it took to cross were measured and averaged in all five experiments.

[2] = target: T1, recombinant human ASK1 protein (Homo sapiens, UniProt Q99683); assay: Evaluation of ASK1 inhibition activity ([gamma-33P]-ATP, scintillation counting); assay type: biochemical; details: for remaining activity at 0.5 µM: activity of group without compound set at 100%, read-out: Remaining kinase activity (%) at 0.5 uM
T1 sequence (Q99683 1-1374): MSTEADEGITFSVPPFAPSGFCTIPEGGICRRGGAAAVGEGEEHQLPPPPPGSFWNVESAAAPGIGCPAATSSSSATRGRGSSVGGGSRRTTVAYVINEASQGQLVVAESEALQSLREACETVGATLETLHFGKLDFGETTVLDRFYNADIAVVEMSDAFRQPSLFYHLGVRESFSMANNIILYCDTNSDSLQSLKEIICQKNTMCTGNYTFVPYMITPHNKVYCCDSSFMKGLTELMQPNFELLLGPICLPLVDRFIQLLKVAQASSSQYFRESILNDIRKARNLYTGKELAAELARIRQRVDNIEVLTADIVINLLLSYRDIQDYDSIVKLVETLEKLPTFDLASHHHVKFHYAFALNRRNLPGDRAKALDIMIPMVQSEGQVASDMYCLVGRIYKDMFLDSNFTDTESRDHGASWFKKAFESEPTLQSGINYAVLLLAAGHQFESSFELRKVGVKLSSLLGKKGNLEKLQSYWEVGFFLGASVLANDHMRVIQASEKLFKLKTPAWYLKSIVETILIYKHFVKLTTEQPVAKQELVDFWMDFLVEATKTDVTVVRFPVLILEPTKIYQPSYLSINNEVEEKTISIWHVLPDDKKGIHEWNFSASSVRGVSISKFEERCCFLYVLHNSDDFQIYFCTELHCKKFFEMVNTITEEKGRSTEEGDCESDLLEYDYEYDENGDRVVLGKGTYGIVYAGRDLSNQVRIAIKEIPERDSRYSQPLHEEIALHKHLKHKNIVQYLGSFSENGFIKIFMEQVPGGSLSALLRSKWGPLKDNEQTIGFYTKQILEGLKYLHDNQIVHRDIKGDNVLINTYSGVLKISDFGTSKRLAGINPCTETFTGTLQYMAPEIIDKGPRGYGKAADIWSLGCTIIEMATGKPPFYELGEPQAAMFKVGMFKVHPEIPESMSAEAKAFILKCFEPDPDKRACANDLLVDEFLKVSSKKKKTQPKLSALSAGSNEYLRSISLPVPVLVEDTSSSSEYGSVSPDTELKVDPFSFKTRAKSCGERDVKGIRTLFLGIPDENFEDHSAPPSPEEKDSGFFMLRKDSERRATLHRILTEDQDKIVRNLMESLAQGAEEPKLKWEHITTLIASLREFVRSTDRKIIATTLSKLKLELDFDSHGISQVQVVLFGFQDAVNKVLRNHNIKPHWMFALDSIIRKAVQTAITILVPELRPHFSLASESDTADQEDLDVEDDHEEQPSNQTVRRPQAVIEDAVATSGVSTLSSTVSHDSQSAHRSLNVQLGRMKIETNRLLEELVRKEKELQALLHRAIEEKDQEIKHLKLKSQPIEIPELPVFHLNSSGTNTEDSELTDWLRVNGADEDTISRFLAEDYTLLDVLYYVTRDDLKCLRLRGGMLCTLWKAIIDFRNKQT
Procedure: The recombinant human ASK1 protein was initiated by adding a mixture of Mg/ATP to the reaction solution (8 mM MOPS PH 7.0, 0.2 mM EDTA, 0.33 mg/mL myelin basic protein, 10 mM Mg Acetate and [gamma-33P]-ATP), and the reaction was terminated by adding 0.5% phosphoric acid after 40 min at room temperature.

SMILES | number of step errors (beam test) [1] | IC50 [2] [nM] | remaining activity at 0.5 µM [2] [%]
Cc1cc(F)c(C(=O)Nc2cccc(-n3nnc4c3CCCC4)n2)cc1-n1cnc(C2CC2)c1 [Example 3, 5-(4-cyclopropyl-1H-imidazole-1-yl)-2-fluoro-4-methyl-N-(6-(4,5,6,7-tetrahydro-1H-benzo[d][1,2,3]triazole-1-yl)pyridine-2-yl)benzamide] | significant reduction in the number of step errors compared to Group G2 | 73 | 7
Cc1cc(F)c(C(=O)Nc2cccc(-n3nnc4c3CCC4)n2)cc1-n1cnc(C2CC2)c1 [Example 2, 5-(4-cyclopropyl-1H-imidazole-1-yl)-N-(6-(5,6-dihydrocyclopenta[d][1,2,3]triazole-1 (4H)-yl)pyridine-2-yl)-2-fluoro-4-methylbenzamide] | significant reduction in the number of step errors compared to Group G2 | 37 | 2
